Assay results: patent US9265746B2, “Method for cell-specific targeting” (priority 2006, dated 2016)

Test system: KB-cell xenografts
Assay: Biodistribution of folate radiotracers in athymic nude mice bearing KB-cell xenografts, with or without antifolate
Assay type: in vivo
Details: 4 h p.i.; antifolate named in label pre-injected 1 h before radiotracer
Experimental: Preparation of cells for in vivo experiments: For subcutaneous inoculation of the mice sub-confluent cells were harvested by treatment with EDTA (1 mM) in PBS (1×, pH 7.4). The cells were then washed once with PBS and pelleted by spinning at 1000×g for 5 min at 20° C. The cells were resuspended in PBS to obtain a concentration of 50×10^6 cells/mL.
In Vivo Studies. 4-5-week-old female, athymic nude mice (CD1-Foxn1/nu) were purchased from Charles River Laboratories (Sulzfeld, Germany). Mice were housed under conditions of controlled temperature (26° C.), humidity (68%) and daily light cycle (12 h light/12 h dark). The animals were fed with a folate-deficient rodent diet (to reduce their serum folate to a level near that of humans) (Mathias et al, J. Nucl. Med. 1996; 37:1003-08). After an acclimation period of 5-7 days, the mice were inoculated subcutaneously with the tumour cell suspension (5×10^6 cells) into the subcutis of the axilla. Radiotracer distribution studies were performed 12-14 days after tumour cell inoculation. The radiotracer (100 μL, 1a: 3.5 MBq/mL or 1b: 7 MBq/mL) was administered via a lateral tail vein. Antifolates (MTX, RTX and PMX) were dosed according to literature experiments at the upper limit of the tolerated dose (Li et al, Clin. Exp. Pharmacol. Physiol. 2004; 31:267-70; Pritchard et al, Clin. Cancer Res. 2000; 6:4389-95; Hughes et al, Journal of Clinical Oncology 2002; 20:3533-44; Aherne et al, Br. J. Cancer 1998; 77:221-26). MTX was supplemented to the drinking water (80 mg/mL) or intravenously injected (400 μg), 24 h, 2 h, 1 h, 30 min and 15 min previous to the administration of radiotracer 1a. RTX (100 μg) and PMX (400 μg) respectively were administered intravenously 2 h, 1 h, 30 min and 15 min previous to the radiotracer 1a. The animals were sacrificed and dissected 4 h p.i. of the radiotracer 1a. Additional biodistribution experiments were performed (30 min), 1 h, 4 h and 24 h post injection of the radiotracer 1a or 1b respectively with (antifolate) pre-treated animals 1 h previous to the experiment. The selected tissues were removed, weighted, and counted for radioactivity to determine distribution of radioactivity within the test animal. The results were tabulated as percentage of the injected dose per gram (% ID/g) of weight tissue, using reference counts from a definite sample of the original injectate.

Row | Compound | biodistribution blood [% ID/g] | biodistribution bone [% ID/g] | biodistribution contents of intest. [% ID/g] | biodistribution heart [% ID/g] | biodistribution intestines [% ID/g] | biodistribution kidney [% ID/g] | biodistribution liver [% ID/g] | biodistribution lung [% ID/g] | biodistribution muscle [% ID/g] | biodistribution spleen [% ID/g] | biodistribution stomach [% ID/g] | biodistribution tumour [% ID/g] | tumour-to-blood | tumour-to-kidney | tumour-to-liver
1 | Nc1nc2ncc(CNc3ccc(C(=O)NC(CCC(=O)NCCCCCC[N+]45Cc6cccc[n+]6[99Tc-5]4([C]#[O+])([C]#[O+])([C]#[O+])[n+]4ccccc4C5)C(=O)O)cc3)nc2c(=O)[nH]1 (stereo not drawn) [radiotracer 3a] | 0.03 ± 0.01 | 0.16 ± 0.02 | 2.49 ± 12.10 | 0.20 ± 0.09 | 0.71 ± 0.40 | 7.11 ± 0.75 | 1.72 ± 2.04 | 0.20 ± 0.02 | 0.27 ± 0.01 | 0.08 ± 0.02 | 0.54 ± 0.58 | 0.82 ± 0.27 | 27.00 ± 14.60 | 0.12 ± 0.05 | 1.24 ± 1.03
2 | Nc1nc2ncc(CNc3ccc(C(=O)NC(CCC(=O)NCCCCCCn4cc5[n+](c4)[99Tc-5]4([C]#[O+])([C]#[O+])([C]#[O+])[NH2+]C(C5)C(=O)[O]4)C(=O)O)cc3)nc2c(=O)[nH]1 (stereo not drawn) [radiotracer 2a] | 0.19 ± 0.18 | 0.82 ± 0.13 | 7.72 ± 4.36 | 0.80 ± 0.60 | 0.79 ± 0.43 | 42.02 ± 7.31 | 4.51 ± 1.29 | 0.85 ± 0.08 | 1.31 ± 0.28 | 0.30 ± 0.05 | 0.62 ± 0.22 | 3.72 ± 0.89 | 12.29 ± 4.22 | 0.09 ± 0.02 | 0.88 ± 0.38
